Measured values as given in PubChem BioAssay (NCI).
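96-well plates; 48 h exposure; 5 concentrations. Endpoints by linear interpolation between flanking doses. Not reached: highest tested concentration assigned. At the GI50, growth is halved. Definition used: TGI = concentration required for complete inhibition of growth.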

Columns and labels:
Test in all cases: NCI tumour cell line growth inhibition, 48 h
SF-295 CNS = system: SF-295 CNS
HOP-92 NSCLC = system: HOP-92 NSCLC
MOLT-4 leukemia = system: MOLT-4 leukemia
NCI/ADR-RES ovarian = system: NCI/ADR-RES ovarian
HS 578T breast = system: HS 578T breast
SF-268 CNS = system: SF-268 CNS
UACC-257 melanoma = system: UACC-257 melanoma
PC-3 prostate = system: PC-3 prostate
SK-OV-3 ovarian = system: SK-OV-3 ovarian
OVCAR-4 ovarian = system: OVCAR-4 ovarian
MCF7 breast = system: MCF7 breast
SNB-75 CNS = system: SNB-75 CNS
MDA-MB-231 breast = system: MDA-MB-231 breast
COLO 205 colon = system: COLO 205 colon
BT-549 breast = system: BT-549 breast
UO-31 renal = system: UO-31 renal
A549 NSCLC = system: A549 NSCLC
HCT-15 colon = system: HCT-15 colon
A498 renal = system: A498 renal
SN12C renal = system: SN12C renal
NCI-H522 lung = system: NCI-H522 lung
CAKI-1 renal = system: CAKI-1 renal
CCRF-CEM leukemia = system: CCRF-CEM leukemia
DU-145 prostate = system: DU-145 prostate
SK-MEL-28 melanoma = system: SK-MEL-28 melanoma
KM12 colon = system: KM12 colon
SK-MEL-2 melanoma = system: SK-MEL-2 melanoma
NCI-H460 lung = system: NCI-H460 lung
786-0 renal = system: 786-0 renal
SF-539 CNS = system: SF-539 CNS
U251 CNS = system: U251 CNS
EKVX NSCLC = system: EKVX NSCLC
RXF 393 renal = system: RXF 393 renal
UACC-62 melanoma = system: UACC-62 melanoma
HCT-116 colon = system: HCT-116 colon
MDA-MB-435 = system: MDA-MB-435
SK-MEL-5 melanoma = system: SK-MEL-5 melanoma
SNB-19 CNS = system: SNB-19 CNS
OVCAR-5 ovarian = system: OVCAR-5 ovarian
HCC-2998 colon = system: HCC-2998 colon
HOP-62 NSCLC = system: HOP-62 NSCLC
TK-10 renal = system: TK-10 renal
RPMI-8226 leukemia = system: RPMI-8226 leukemia
T-47D breast = system: T-47D breast
K-562 leukemia = system: K-562 leukemia
IGROV1 ovarian = system: IGROV1 ovarian
HL-60(TB) leukemia = system: HL-60(TB) leukemia
LOX IMVI melanoma = system: LOX IMVI melanoma
OVCAR-3 ovarian = system: OVCAR-3 ovarian
SR leukemia = system: SR leukemia
ACHN renal = system: ACHN renal
SW-620 colon = system: SW-620 colon
HT29 colon = system: HT29 colon
MALME-3M melanoma = system: MALME-3M melanoma
OVCAR-8 ovarian = system: OVCAR-8 ovarian
M14 melanoma = system: M14 melanoma

CN1CCN(Cc2ccc(NC(=O)c3cncc(C#Cc4cnn5cccnc45)c3)cc2C(F)(F)F)CC1 was tested, and the GI50 (SF-295 CNS) was 10.9 µM, the TGI (SF-295 CNS) was 23.2 µM and the GI50 (HOP-92 NSCLC) was 0.376 µM. The TGI (HOP-92 NSCLC) was 4 µM, the GI50 (MOLT-4 leukemia) was 2.13 µM and the TGI (MOLT-4 leukemia) was 7.02 µM. The GI50 (NCI/ADR-RES ovarian) was 3.49 µM, the TGI (NCI/ADR-RES ovarian) was 12.7 µM and the GI50 (HS 578T breast) was 2.65 µM. The TGI (HS 578T breast) was 10.3 µM, the GI50 (SF-268 CNS) was 2.54 µM and the TGI (SF-268 CNS) was 6.33 µM. For the same molecule, the GI50 (UACC-257 melanoma) was 2.92 µM, the TGI (UACC-257 melanoma) was 12.2 µM and the GI50 (PC-3 prostate) was 3.06 µM. It also gave a TGI (PC-3 prostate) of 13.3 µM, a GI50 (SK-OV-3 ovarian) of 3.3 µM and a TGI (SK-OV-3 ovarian) of 10.6 µM. It also gave a GI50 (OVCAR-4 ovarian) of 2.88 µM, a TGI (OVCAR-4 ovarian) of 13.1 µM and a GI50 (MCF7 breast) of 1.29 µM. It also gave a TGI (MCF7 breast) of 4.39 µM, a GI50 (SNB-75 CNS) of 2.84 µM and a TGI (SNB-75 CNS) of 12.3 µM. It also gave a GI50 (MDA-MB-231 breast) of 1.39 µM, a TGI (MDA-MB-231 breast) of 7.58 µM and a GI50 (COLO 205 colon) of 1.4 µM. It also gave a TGI (COLO 205 colon) of 3.31 µM, a GI50 (BT-549 breast) of 4.63 µM and a TGI (BT-549 breast) of 14.5 µM. For the same molecule, the GI50 (UO-31 renal) was 2.28 µM, the TGI (UO-31 renal) was 8.57 µM and the GI50 (A549 NSCLC) was 2.85 µM. For the same molecule, the TGI (A549 NSCLC) was 9.01 µM, the GI50 (HCT-15 colon) was 2.8 µM and the TGI (HCT-15 colon) was 10.2 µM. It also gave a GI50 (A498 renal) of 8.19 µM, a TGI (A498 renal) of 19.8 µM and a GI50 (SN12C renal) of 2.66 µM. It also gave a TGI (SN12C renal) of 10.4 µM, a GI50 (NCI-H522 lung) of 1.71 µM and a TGI (NCI-H522 lung) of 3.51 µM. It also gave a GI50 (CAKI-1 renal) of 1.8 µM, a TGI (CAKI-1 renal) of 7.53 µM and a GI50 (CCRF-CEM leukemia) of 2.28 µM. The TGI (CCRF-CEM leukemia) was 6.47 µM, the GI50 (DU-145 prostate) was 2.94 µM and the TGI (DU-145 prostate) was 9.25 µM. The GI50 (SK-MEL-28 melanoma) was 1.86 µM, the TGI (SK-MEL-28 melanoma) was 8.55 µM and the GI50 (KM12 colon) was 0.0255 µM. It also gave a TGI (KM12 colon) of 4.38 µM, a GI50 (SK-MEL-2 melanoma) of 1.04 µM and a TGI (SK-MEL-2 melanoma) of 2.55 µM. It also gave a GI50 (NCI-H460 lung) of 2 µM, a TGI (NCI-H460 lung) of 4.72 µM and a GI50 (786-0 renal) of 1.83 µM. The TGI (786-0 renal) was 3.3 µM, the GI50 (SF-539 CNS) was 1.12 µM and the TGI (SF-539 CNS) was 2.75 µM. For the same molecule, the GI50 (U251 CNS) was 3.3 µM, the TGI (U251 CNS) was 14.1 µM and the GI50 (EKVX NSCLC) was 5.01 µM. The TGI (EKVX NSCLC) was 16.7 µM, the GI50 (RXF 393 renal) was 2.25 µM and the TGI (RXF 393 renal) was 4.52 µM. The GI50 (UACC-62 melanoma) was 2.9 µM, the TGI (UACC-62 melanoma) was 13.3 µM and the GI50 (HCT-116 colon) was 0.941 µM. The TGI (HCT-116 colon) was 2.62 µM, the GI50 (MDA-MB-435) was 2 µM and the TGI (MDA-MB-435) was 8.71 µM. The GI50 (SK-MEL-5 melanoma) was 2.6 µM, the TGI (SK-MEL-5 melanoma) was 8.94 µM and the GI50 (SNB-19 CNS) was 4.05 µM. It also gave a TGI (SNB-19 CNS) of 12.6 µM, a GI50 (OVCAR-5 ovarian) of 2.45 µM and a TGI (OVCAR-5 ovarian) of 12.1 µM. The GI50 (HCC-2998 colon) was 2.4 µM, the TGI (HCC-2998 colon) was 10.8 µM and the GI50 (HOP-62 NSCLC) was 2.75 µM. It also gave a TGI (HOP-62 NSCLC) of 9.35 µM, a GI50 (TK-10 renal) of 3.99 µM and a TGI (TK-10 renal) of 9.78 µM. The GI50 (RPMI-8226 leukemia) was 1.83 µM, the TGI (RPMI-8226 leukemia) was 5.1 µM and the GI50 (T-47D breast) was 6.08 µM. It also gave a TGI (T-47D breast) of 22 µM, a TGI (K-562 leukemia) of 1.32 µM and a GI50 (IGROV1 ovarian) of 2.12 µM. It also gave a TGI (IGROV1 ovarian) of 7.63 µM, a GI50 (HL-60(TB) leukemia) of 0.598 µM and a TGI (HL-60(TB) leukemia) of 2.67 µM. The GI50 (LOX IMVI melanoma) was 1.23 µM, the TGI (LOX IMVI melanoma) was 3.12 µM and the GI50 (OVCAR-3 ovarian) was 3.88 µM. The TGI (OVCAR-3 ovarian) was 12.9 µM, the GI50 (SR leukemia) was 2.45 µM and the TGI (SR leukemia) was 6.4 µM. It also gave a GI50 (ACHN renal) of 2.29 µM, a TGI (ACHN renal) of 6.84 µM and a GI50 (SW-620 colon) of 1.67 µM. The TGI (SW-620 colon) was 5.01 µM, the GI50 (HT29 colon) was 1.36 µM and the TGI (HT29 colon) was 5.58 µM. It also gave a GI50 (MALME-3M melanoma) of 0.322 µM, a TGI (MALME-3M melanoma) of 1.83 µM and a GI50 (OVCAR-8 ovarian) of 2.87 µM. For the same molecule, the TGI (OVCAR-8 ovarian) was 10.4 µM, the GI50 (M14 melanoma) was 1.06 µM and the TGI (M14 melanoma) was 3.34 µM.
